Measured values published in patent publication US5593970A, “Heterocyclic anthracycline analogs” (priority 1994, dated 1997).
Read-outs that look alike come from different tables or passages of the source.

Legend:
[1] = tested on: UACC-62; assay: NCI sulforhodamine B assay; format: cell-based, human
Experimental: (§1) These assays were carried out at the Developmental Therapeutics Program, Division of Cancer Treatment, National Cancer Institute (Bethesda, Md., U.S.A.). The method consists of incubating varying concentrations of the drug with an inoculum of cells for two days. […] The 57 cell lines included two mouse leukemia lines (P388 parental and adriamycin resistant) and […] human cell lines.
(§2) It should be noted that the first two parameters (GI50 and TGI) relate to antiproliferation effects while the third one (LC50) indicates true cytotoxicity. A value of -4 or greater is considered to denote resistance (inactivity).

[2] = tested on: NCl-H460; assay: NCI sulforhodamine B assay; format: cell-based, human
Experimental: as §1, §2

[3] = tested on: HCC-2998; assay: NCI sulforhodamine B assay; format: cell-based, human
Experimental: as §1, §2

[4] = tested on: SW-620; assay: NCI sulforhodamine B assay; format: cell-based, human; conditions: for GI50: Homo sapiens, read-out: Log10 GI50 (converted)
Experimental: as §1, §2

[5] = tested on: UO-31; assay: NCI sulforhodamine B assay; format: cell-based, human
Experimental: as §1, §2

[6] = tested on: HOP-18; assay: NCI sulforhodamine B assay; format: cell-based, human
Experimental: as §1, §2

[7] = tested on: HCT-15; assay: NCI sulforhodamine B assay; format: cell-based, human; conditions: 2880 min
Experimental: as §1, §2

[8] = tested on: SNB-75; assay: NCI sulforhodamine B assay; format: cell-based, human
Experimental: as §1, §2

[9] = tested on: EKVX; assay: NCI sulforhodamine B assay; format: cell-based, human
Experimental: as §1, §2

[10] = tested on: OVCAR-4; assay: NCI sulforhodamine B assay; format: cell-based, human
Experimental: as §1, §2

[11] = tested on: SN-12C; assay: NCI sulforhodamine B assay; format: cell-based, human
Experimental: as §1, §2

[12] = tested on: LOX-IMVI; assay: NCI sulforhodamine B assay; format: cell-based, human
Experimental: as §1, §2

[13] = tested on: NCl-H23; assay: NCI sulforhodamine B assay; format: cell-based, human
Experimental: as §1, §2

[14] = tested on: MCF-7; assay: NCI sulforhodamine B assay; format: cell-based, human
Experimental: as §1, §2

[15] = tested on: SF-295; assay: NCI sulforhodamine B assay; format: cell-based, human
Experimental: as §1, §2

[16] = tested on: solid tumors; conditions: solid tumor cell lines, 48 h
[17] = tested on: Leukemia; conditions: leukemia cell lines, 48 h
[18] = tested on: NSC Lung; conditions: nsc lung cancer cell lines, 48 h
[19] = tested on: tumor cell lines; conditions: tumor cell line panel, 48 h
[20] = tested on: Ovarian; conditions: ovarian cancer cell lines, 48 h
[21] = tested on: CNS; conditions: cns cancer cell lines, 48 h

## COC(=O)C1CC2=C(C(=O)c3c(cc4ccccc4c3O)C2=O)C(O[C@H]2C[C@H](NC(=O)C(F)(F)F)[C@H](O)[C@H](C)O2)O1 (mixture of isomers) [BCH-242, (1'S,1R,3S) and (1'S, 1S,3R)-Methyl[11-hydroxy-1-2',3',6'-trideoxy-3-trifluroacetamido-L-lyxohexopyranose)-5,12-dioxo-3,4,5,12-tetrahydroanthraceno[2,3-c]pyran-3-yl]formate]
[1]; Homo sapiens, UACC-62, 48 h, UACC-62, read-out: Log10 TGI (converted)
  IC100: 3.16 µM
[1]; Homo sapiens, UACC-62, 48 h, read-out: Log10 LC50, UACC-62 (converted)
  CC50: 5.62 µM
[1]; UACC-62
  Log10 TGI: -5.77 log molar
[1]; UACC-62, 2880 min
  Log10 LC50: -5.37 log molar
[2]; Homo sapiens, 48 h, NCl-H460, read-out: Log10 TGI (converted)
  IC100: 3.98 µM
[2]; Homo sapiens, NCI-H460, 48 h, read-out: Log10 LC50, NCl-H460 (converted)
  CC50: 8.13 µM
[2]; NCl-H460
  Log10 TGI: -5.70 log molar
[2]; NCl-H460, 2880 min
  Log10 LC50: -5.33 log molar
[3]; HCC-2998
  Log10 GI50: -5.92 log molar
[3]; Homo sapiens, HCC 2998, HCC-2998, read-out: Log10 GI50 (converted)
  GI50: 2.34 µM
[4]; SW-620, SW-620
  GI50: > 100 µM
[4]; SW-620
  GI50: 1.32 µM
[4]; SW-620, 2880 min
  Log10 LC50: -5.19 log molar
[5]
  Log10 GI50: -5.62 log molar
[5]; 2880 min
  Log10 LC50: -4.77 log molar
[6]; HOP-18
  Log10 GI50: -5.94 log molar
  Log10 TGI: -5.45 log molar
[6]; HOP-18, 2880 min
  Log10 LC50: -4.92 log molar
[6]; Homo sapiens, HOP-18, 48 h, HOP-18, read-out: Log10 TGI (converted)
  IC100: 4.9 µM
[6]; Homo sapiens, HOP-18, 48 h, read-out: Log10 LC50, HOP-18 (converted)
  CC50: 16.6 µM
[6]; Homo sapiens, HOP-18, HOP-18, read-out: Log10 GI50 (converted)
  GI50: 1.91 µM
[7]
  Log10 LC50: -5.38 log molar
[8]; Homo sapiens, SNB-75, 48 h, SNB-75, read-out: Log10 TGI (converted)
  IC100: 8.71 µM
[8]; Homo sapiens, SNB-75, 48 h, read-out: Log10 LC50, SNB-75 (converted)
  CC50: 30.2 µM
[8]; Homo sapiens, SNB-75, SNB-75, read-out: Log10 GI50 (converted)
  GI50: 2.95 µM
[8]; SNB-75
  Log10 GI50: -5.63 log molar
  Log10 TGI: -5.25 log molar
[8]; SNB-75, 2880 min
  Log10 LC50: -4.73 log molar
[9]
  Log10 GI50: -5.83 log molar
[9]; 2880 min
  Log10 LC50: -5.27 log molar
[9]; Homo sapiens, 48 h, read-out: Log10 LC50, EKVX (converted)
  CC50: 6.31 µM
[9]; Homo sapiens, 48 h, read-out: Log10 TGI (converted)
  IC100: 3.39 µM
[9]; Homo sapiens, read-out: Log10 GI50 (converted)
  GI50: 1.78 µM
[10]; Homo sapiens, OVCAR-4, 48 h, OVCAR-4, read-out: Log10 TGI (converted)
  IC100: 3.31 µM
[10]; Homo sapiens, OVCAR-4, 48 h, read-out: Log10 LC50, OVCAR-4 (converted)
  CC50: 6.03 µM
[10]; OVCAR-4
  Log10 GI50: -5.94 log molar
  Log10 TGI: -5.63 log molar
[10]; OVCAR-4, 2880 min
  Log10 LC50: -5.31 log molar
[11]; Homo sapiens, SN12C, 48 h, SN-12C, read-out: Log10 TGI (converted)
  IC100: 3.02 µM
[11]; Homo sapiens, SN12C, 48 h, read-out: Log10 LC50, SN-12C (converted)
  CC50: 5.5 µM
[11]; Homo sapiens, SN12C, SN-12C, read-out: Log10 GI50 (converted)
  GI50: 1.62 µM
[11]; SN-12C
  Log10 GI50: -5.94 log molar
  Log10 TGI: -5.62 log molar
[11]; SN-12C, 2880 min
  Log10 LC50: -5.31 log molar
[12]; Homo sapiens, LOX IMVI, 48 h, read-out: Log10 LC50, LOX-IMVI (converted)
  CC50: 5.75 µM
[12]; LOX-IMVI, 2880 min
  Log10 LC50: -5.43 log molar
[13]; Homo sapiens, 48 h, NCl-H23, read-out: Log10 TGI (converted)
  IC100: 3.24 µM
[13]; Homo sapiens, NCI-H23, 48 h, read-out: Log10 LC50, NCl-H23 (converted)
  CC50: 5.89 µM
[13]; NCl-H23
  Log10 GI50: -5.99 log molar
  Log10 TGI: -5.65 log molar
[13]; NCl-H23, 2880 min
  Log10 LC50: -5.31 log molar
[14]; Homo sapiens, MCF7, 48 h, read-out: Log10 LC50, MCF-7 (converted)
  CC50: 5.37 µM
[14]; Homo sapiens, MCF7, MCF-7; read-out: Log10 GI50 (converted)
  GI50: 0.324 µM
[14]; Homo sapiens, MCF7; MCF-7; read-out: Log10 GI50 (converted)
  GI50: 1.55 µM
[14]; MCF-7; 2880 min
  Log10 LC50: -5.38 log molar
[15]; Homo sapiens, SF-295, 48 h, SF-295, read-out: Log10 TGI (converted)
  IC100: 7.08 µM
[15]; Homo sapiens, SF-295, SF-295, read-out: Log10 GI50 (converted)
  GI50: 2.4 µM
[15]; SF-295
  Log10 GI50: -5.70 log molar
  Log10 TGI: -5.41 log molar

## Methyl(11-hydroxy-5,12-dioxo-3,4,5,12-tetrahydroanthraceno[2,3-c]pyran-3-yl)ketone and Methyl(5-hydroxy-5,12-dioxo-3,4,5,12-tetrahydroanthraceno[2,3-c]pyran-3-yl)ketone [BCH-687]
[16]
  Average LOG10 LC50, Mean Potency in solid tumors: -4.21(± 0.05) log molar
[17]
  Average LOG10 LC50: > -4.00 log molar
[18]
  Average LOG10 LC50: > -4.23(± 0.07) log molar
[19]
  Log10 LC50, Mean / MG-MID: -4.10 log molar
[20]
  Average LOG10 LC50: -4.15(± 0.11) log molar
[21]
  Average LOG10 LC50: > -4.15 log molar
